Results: patent US20240158430A1, “NOVEL COMPOUND OR SALT THEREOF, AND ANTITUMOR ACTIVATOR CONTAINING SAME AS ACTIVE INGREDIENT” (AKITA UNIVERSITY, priority 2021, published 2024)
Several values for one entry are separate records, joined by “and”; a condition that tells them apart may be missing. Identical values can stand only once. Like-named read-outs stand apart in the source and are kept apart here.

Columns and labels:
HCT116 [1] = assay: In vivo antitumor effect, HCT116 subcutaneous implant; settings: nude mouse, HCT116 s.c.; 1 mg single tail vein injection; maximum diameter 4 days after; control 113.7±12.4%
Protocol: The in vivo antitumor effect of GO-Y199 was investigated. The method is as follows. HCT116 was implanted subcutaneously into a nude mouse. After tumor formation, 100 mM GO-Y199 in DMSO was dissolved in 100 μL of PBS and injected once into the tail vein of the mouse (corresponding to 1 mg of GO-Y199). As a control group, a DMSO-PBS solution having the equivalent concentration was injected once into the tail vein. The maximum diameter of the tumor was measured 4 days after the administration.

[2] = system: cutaneous T-cell lymphoma cell line HUT78; assay: Cell growth inhibitory activity, HUT78; assay type: cell-based; settings: Table 10
Protocol: [The source words this procedure for another cell line and reports this cell line under the same test.] (§1) The cell growth inhibitory activity against a colorectal cancer cell line HCT116 was measured. As an index of cell growth inhibitory activity, a concentration at which cell growth was inhibited by 50% as compared with a control (IC50) was used. The method is as follows. HCT116 was added to a 6-well plate by 5×10^4, compounds having various concentrations were added after 24 hours, and the number of cells was counted after 72 hours of culture. As the control, DMSO was used in an amount equal to the amount added in accordance with the addition concentration of the highest-concentration compound. The number of cells at each concentration relative to the control was expressed as a percentage.
(§2) The method is as described above.

pSTAT3 = assay: Influence on pSTAT3, immunohistochemistry; assay type: cell-based; settings: 2 μM; 24 hours; control 10.2±1.6%
Protocol: The influence of GO-Y199 on NF-kB (p65) was investigated. The method is as follows. 3×10^6 cells of the HCT116 cell line were added to a 10-cm plate, 2 μM of GO-Y199 was added after 24 hours, the cells were collected after 24 hours, embedded in iPGell (GenOStaff), and fixed in formalin, paraffin blocks were then prepared, and immuno-histochemistry was performed with an anti-NF-kB (p65) antibody. In addition, 2 μM and 5 μM of GO-Y199 were added, lysates were collected after 24 hours, and an expression level of NF-kB (p65) was analyzed using an ELISA-plate (NF-kBp65 (pS536) SimpleStep-ELISA-kit, Abcam). An amount of protein was corrected by the absorbance of A 280 nm. The upper part of FIG. 14 indicates photographs of the control group and the GO-Y199 (2 μM)-added group after 24 hours. The lower part of FIG. 14 indicates results of the t-test of these groups after 24 hours. FIG. 15 indicates the comparison results of the NF-kB inhibitory effect of GO-Y199 (2 μM, 5 μM)-added groups with respect to the control group.
The influence of GO-Y199 on pSTAT3 was investigated. The method is as described above. Immunohistochemistry was performed with an anti-pSTAT3 antibody. The upper part of FIG. 16 indicates photographs of the control group and the GO-Y199 (2 μM)-added group after 24 hours. The lower part of FIG. 16 indicates results of the t-test of these groups after 24 hours.

[3] = system: breast cancer cell line HCC70; assay: Cell growth inhibitory activity, HCC70; assay type: cell-based
Protocol: [The source words this procedure for another cell line and reports this cell line under the same test.] as §1, §2

[4] = system: vascular endothelial cells HUVEC-R resistant to Ki8751; assay: Angiogenesis inhibitory activity, HUVEC-R; assay type: cell-based; settings: Table 11; number of cells after 72 hours
Protocol: HUVEC-R was cultured in the presence of each compound using an EGMTM-2 Bullet Kit (Takara Bio Inc., Otsu, Japan), and the number of cells was measured after 72 hours. In addition, IC50 was determined from the results.

[5] = system: colorectal cancer cell line DLD-1; assay: Cell growth inhibitory activity, DLD-1; assay type: cell-based
Protocol: as §1, §2
The cell growth inhibitory activity (IC50) of each of curcumin, GO-Y199, and GO-Y206 against the colorectal cancer cell lines DLD-1 and HCT116 and the gastric cancer cell lines KATO III and H-111-TC was measured. The method is as described above.

[6] = system: malignant pleural mesothelioma cell line NCI-H226; assay: Cell growth inhibitory activity, NCI-H226; assay type: cell-based; settings: Table 8
Protocol: as §1, with “percentage. In Table 3, the turbidities of the compounds are also indicated.” for “percentage.”
GO-Y198, GO-Y199, and GO-Y200 against malignant pleural mesothelioma cell lines NCI-H226 and MSTO211H was measured. The method is as described above. For comparison, the IC50 of cisplatin (CDDP), a cytocidal anticancer agent, is also indicated.

Safety and toxicity test = assay type: in vivo, mouse
Protocol: In vivo safety and toxicity of GO-Y199 were investigated. The method is as follows. As described above, the equivalent of 1 mg of GO-Y199 was injected into the tail vein, blood was collected from the orbital vein 7 days later, and a hemoglobin value (Hb), the number of white blood cells (WBC), and the number of platelets (Plt) were measured with Cell tac MEK-5258 (available from Nihon Kohden Corporation). A creatinine value (Cre), a total bilirubin value (T-Bil), and an AST value were subjected to outsourcing (measured in Skylight Biotech Inc.). FIG. 29 indicates change in body weight of mice after intravenous injection. FIG. 30 indicates photographs of the tail of the mouse after intravenous injection.

HCT116 [7] = assay: Cytocidal effect, HCT116; assay type: cell-based; settings: 2 μM and 5 μM, cells counted after 48 and 72 hours
Protocol: The method is as follows. Each cell line was added to 6-well plate by 5×10^4, 2 μM and 5 μM of GO-Y199 were added after 24 hours, and the number of cells was counted after 48 hours and 72 hours.

[8] = individual mice, 7 days after 1 mg iv

Compound: COCOc1cc(/C=C/C(=O)CC(SCCOCCOCCOCCOCc2cn([C@@H]3O[C@H](CO)[C@@H](O[C@@H]4O[C@H](CO)[C@H](O)[C@H](O)[C@H]4O)[C@H](O)[C@H]3O)nn2)c2cc(OCOC)cc(OCOC)c2)cc(OCOC)c1 (stereo partly shown) [GO-Y199]
- tumor augmentation, % of that before the administration (HCT116 [1]): 95.2±20.0%
- IC50 [2]: 0.84 µM
- relative expression level of pSTAT3 (pSTAT3): 0.3±0.5%
- IC50 ([3]; Table 4, 72 hours): 540 nM
- GO-Y199 vs GO-Y030 (IC50 comparison), HCC70 ([3]; Table 5, ratio of IC50): 0.24
- IC50 [4]: 0.96 µM
- IC50 ([5]; Table 4, 72 hours, read-out: IC50 DLD-1): 0.26 µM
- GO-Y199 vs GO-Y030 (IC50 comparison), DLD-1 ([5]; Table 5, ratio of IC50): 0.36
- GO-Y199 vs curcumin (IC50 comparison), DLD-1 ([5]; Table 5, ratio of IC50): 0.014
- IC50 ([5]; Table 6, read-out: IC50 (μM) DLD-1): 0.85 µM
- IC50 [6]: 4.7 µM
- Cre (mg/dL) Ave. ± SD (Safety and toxicity test; 7 days after 1 mg iv, control 0.24 ± 0.15): 0.15 ± 0.02 mg/dL
- T-Bil (mg/dL) Ave. ± SD (Safety and toxicity test; 7 days after 1 mg iv, control 0.47 ± 0.17): 0.33 ± 0.19 mg/dL
- AST (U/L) Ave. ± SD (Safety and toxicity test; 7 days after 1 mg iv, control 65.0 ± 9.1): 62.0 ± 8.6 U/L
- hematology and blood chemistry vs control group (Safety and toxicity test; Tables 12 and 13): no significant difference
- body weight vs control group (Safety and toxicity test; after intravenous injection): no difference in body weight
- local finding in the tails (Safety and toxicity test; after tail vein injection): no local abnormal finding
- AST (U/L) (Safety and toxicity test; [8]): 63 U/L and 72 U/L and 51 U/L
- Cre (Safety and toxicity test; [8]): 0.18 mg/dL and 0.14 mg/dL and 0.13 mg/dL
- T-Bil (Safety and toxicity test; [8]): 0.2 mg/dL (2×) and 0.6 mg/dL
- overall safety (Safety and toxicity test; mouse model): safe
- cytocidal effect (HCT116 [7]): cytocidal effect
